Measured values published in patent publication US8343976B2, “Compounds, compositions and methods comprising pyrazole derivatives” (Institute for OneWorld Health, priority 2009, dated 2013).

Biological target: T1, CFTR (Homo sapiens, UniProt P13569)
T1 construct: results in the phosphorylation and opening of CFTR anion channels; host or cells: Human colonic T84 cells
Assay: T84 assay (FLIPR membrane potential dye, forskolin/IBMX-stimulated CFTR channel activity)
Type: cell-based
Conditions: Human colonic T84 cells; 10 μM forskolin + 100 μM IBMX; average of at least 2 runs unless marked n = 1
Method: (§1) For example, Human colonic T84 cells can be acquired from the European Collection of Cell Cultures (ECACC) and grown in standard culture conditions as described by the supplier. On the day before assay 25,000 T84 cells per well are plated into standard black walled, clear bottom 384-well assay plates in standard growth medium consisting of DMEM:F12 with 10% FBS and incubated overnight. On the day of the assay the plates are washed using a standard assay buffer (HBSS with 10 mM Hepes) and incubated for 15 minutes in serum free cell culture medium before the addition of a commercially available membrane potential sensitive fluorescent dye (FLIPR Red membrane potential dye, Molecular Devices Corporation). T84 cells are incubated with the FLIPR Red membrane potential dye for 45 minutes in the presence and absence of test compound before being transferred to a commercially available fluorescence imaging plate reader (FLIPR384, Molecular Devices Corporation). Fluorescence levels are monitored continuously every second for 150 seconds; after an initial 10 second baseline, CFTR channel activity is stimulated through the addition of 10 μM forskolin in the presence of 100 μM of the phosphodiesterase inhibitor iso-butylmethylxanthine (IBMX). Addition of the forskolin leads to the activation of intracellular adenylyl cylase 1, elevating cAMP levels and results in the phosphorylation and opening of CFTR anion channels. CFTR channel opening causes chloride ion efflux and subsequent depolarization of the cells, which is measured by an increase in fluorescence. CFTR inhibitor compounds prevent cell depolarization and the associated increase in fluorescence.
as §1, with “Human colonic” for “For example, Human colonic”, “T84 cells are acquired from” for “T84 cells can be acquired from”, “(ECACC) and are grown in” for “(ECACC) and grown in”

T1 sequence (P13569 whole entry): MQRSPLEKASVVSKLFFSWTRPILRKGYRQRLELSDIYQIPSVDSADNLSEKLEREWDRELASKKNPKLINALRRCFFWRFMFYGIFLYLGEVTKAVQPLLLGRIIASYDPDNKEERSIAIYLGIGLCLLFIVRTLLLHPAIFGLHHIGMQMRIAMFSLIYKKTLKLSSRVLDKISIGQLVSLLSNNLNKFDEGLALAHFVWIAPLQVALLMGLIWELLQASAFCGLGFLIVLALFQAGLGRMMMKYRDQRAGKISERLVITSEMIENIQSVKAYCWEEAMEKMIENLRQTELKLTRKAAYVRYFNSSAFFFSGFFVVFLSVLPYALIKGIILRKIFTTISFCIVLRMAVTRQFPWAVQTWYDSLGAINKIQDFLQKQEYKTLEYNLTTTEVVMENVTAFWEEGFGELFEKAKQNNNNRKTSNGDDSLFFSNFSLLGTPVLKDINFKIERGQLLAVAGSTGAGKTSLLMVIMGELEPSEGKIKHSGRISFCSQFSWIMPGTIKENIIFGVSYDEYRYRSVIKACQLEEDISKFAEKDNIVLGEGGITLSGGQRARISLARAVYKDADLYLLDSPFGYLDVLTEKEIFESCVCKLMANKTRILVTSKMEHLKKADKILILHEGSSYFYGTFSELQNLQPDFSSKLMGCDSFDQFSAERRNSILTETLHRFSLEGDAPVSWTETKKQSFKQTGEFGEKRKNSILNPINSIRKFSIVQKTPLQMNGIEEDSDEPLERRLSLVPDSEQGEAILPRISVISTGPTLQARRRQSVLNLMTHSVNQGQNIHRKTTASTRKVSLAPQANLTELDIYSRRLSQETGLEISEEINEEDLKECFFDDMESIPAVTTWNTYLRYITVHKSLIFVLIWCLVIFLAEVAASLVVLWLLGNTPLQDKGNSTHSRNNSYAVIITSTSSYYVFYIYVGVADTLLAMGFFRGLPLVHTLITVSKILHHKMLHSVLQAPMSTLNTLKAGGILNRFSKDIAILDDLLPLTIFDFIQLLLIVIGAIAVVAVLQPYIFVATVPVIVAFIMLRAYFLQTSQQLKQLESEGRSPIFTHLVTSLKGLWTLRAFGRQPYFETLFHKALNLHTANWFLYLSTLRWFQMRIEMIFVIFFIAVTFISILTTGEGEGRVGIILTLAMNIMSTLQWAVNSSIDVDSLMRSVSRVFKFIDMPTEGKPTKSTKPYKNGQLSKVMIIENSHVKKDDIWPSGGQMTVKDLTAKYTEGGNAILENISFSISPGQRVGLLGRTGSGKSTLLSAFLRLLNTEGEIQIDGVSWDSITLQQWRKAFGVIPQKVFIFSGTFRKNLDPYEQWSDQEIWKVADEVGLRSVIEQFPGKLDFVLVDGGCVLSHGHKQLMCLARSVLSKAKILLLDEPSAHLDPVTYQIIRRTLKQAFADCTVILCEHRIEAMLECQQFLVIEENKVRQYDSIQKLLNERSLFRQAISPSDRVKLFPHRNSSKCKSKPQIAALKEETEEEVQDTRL

Row | SMILES | IC50 [µM]
1 | CN(Cc1ccc(Oc2ccccn2)cc1)C(=O)c1cc(-c2cc(Cl)c(O)c(Cl)c2)n[nH]1 [Compound 7, 3-(3,5-dichloro-4-hydroxyphenyl)-N-methyl-N-(4-(pyridin-2-yloxy)benzyl)-1H-pyrazole-5-carboxamide] | 21
2 | O=C(NCc1cccc(OC(F)(F)F)c1)c1cc(-c2cc(Cl)c(O)c(Cl)c2)n[nH]1 [Compound 2, 3-(3,5-dichloro-4-hydroxyphenyl)-N-(3-(trifluoromethoxy)benzyl)-1H-pyrazole-5-carboxamide] | 18.7
3 | CN(Cc1ccc(Oc2ccccc2)cc1)C(=O)c1cc(-c2cc(Cl)c(O)c(Cl)c2)n[nH]1 [Compound 4, 3-(3,5-dichloro-4-hydroxyphenyl)-N-methyl-N-(4-phenoxybenzyl)-1H-pyrazole-5-carboxamide] | 21.1
4 | O=C(NCc1ccc(F)c(C(F)(F)F)c1)c1cc(-c2cc(Cl)c(O)c(Cl)c2)n[nH]1 [Compound 9, 3-(3,5-dichloro-4-hydroxyphenyl)-N-(4-fluoro-3-(trifluoromethyl)benzyl)-1H-pyrazole-5-carboxamide] | 29.8
5 | O=C(c1cc(-c2cc(Cl)c(O)c(Cl)c2)n[nH]1)N1CCN(c2cccc(C(F)(F)F)c2)CC1 [Compound 10, (3-(3,5-dichloro-4-hydroxyphenyl)-1H-pyrazol-5-yl)(4-(3-(trifluoromethyl)phenyl)piperazin-1-yl)methanone] | 29.6
6 | O=C(NCc1ccc(Cl)c(Cl)c1)c1cc(-c2cc(Cl)c(O)c(Cl)c2)n[nH]1 [Compound 5, 3-(3,5-dichloro-4-hydroxyphenyl)-N-(3,4-dichlorobenzyl)-1H-pyrazole-5-carboxamide] | 29.5

The next molecules have a lower IC50 than those just listed; values first:

Row | IC50 [µM] | SMILES
7 | 3.46 | O=C(NCCC(c1ccccc1)c1ccccc1)c1cc(-c2cc(Cl)c(O)c(Cl)c2)n[nH]1 [Compound 3, 3-(3,5-dichloro-4-hydroxyphenyl)-N-(3,3-diphenylpropyl)-1H-pyrazole-5-carboxamide]
8 | 16.5 | CN(Cc1ccc(C(C)(C)C)cc1)C(=O)c1cc(-c2cc(Cl)c(O)c(Cl)c2)n[nH]1 [Compound 8, N-(4-tert-butylbenzyl)-3-(3,5-dichloro-4-hydroxyphenyl)-N-methyl-1H-pyrazole-5-carboxamide]
9 | 9.06 | CN(Cc1cccc(C(F)(F)F)c1)C(=O)c1cc(-c2cc(Cl)c(O)c(Cl)c2)n[nH]1 [Compound 1, 3-(3,5-dichloro-4-hydroxyphenyl)-N-methyl-N-(3-(trifluoromethyl)benzyl)-1H-pyrazole-5-carboxamide]
10 | 17.4 | CC(C)(C)c1ccc(CNC(=O)c2cc(-c3cc(Cl)c(O)c(Cl)c3)n[nH]2)cc1 [Compound 6, N-(4-tert-butylbenzyl)-3-(3,5-dichloro-4-hydroxyphenyl)-1H-pyrazole-5-carboxamide]
